Measurements: patent publication US20250073339A1, “CONJUGATES COMPRISING CLEAVABLE LINKERS” (priority 2023, published 2025)
Numbered stars: 1 amine (or outer) side, 2 acyl side, 3 side chain; on linkers, the order of the positions; unused ones are H or OH. Square brackets hold non-standard residues; d marks the D form. Peptide text beside a SMILES is read from it. * marks the point of attachment. X1 = O=C(O)[C@H]1O[C@@H](Oc2ccc(COC(=O)[*:2])cc2N[*:1])[C@H](O)[C@@H](O)[C@@H]1O; CH3O(CH2CH2O)11CH2CH2CO = COCCOCCOCCOCCOCCOCCOCCOCCOCCOCCOCCOCCC(=O)*; Dolaproine = CO[C@@H]([C@@H]1CCCN1)[C@@H](C)C(=O)O; Hexanoyl(6-maleimido) = O=C1C=CC(=O)N1CCCCCC(=O)*; Propanoyl(3-maleimido) = O=C1C=CC(=O)N1CCC(=O)*; Dil = CC[C@H](C)[C@H](NC)[C@@H](CC(=O)O)OC; PABC = O=C(OCc1ccc(N[*:1])cc1)[*:2]; X2 = C[C@@H](N*)[C@@H](O)c1ccccc1; Cit = NC(=O)NCCC[C@H](N)C(=O)O; NMeV = CN[C@H](C(=O)O)C(C)C; βAla = NCCC(=O)O

What was measured:
Format in all cases: biochemical
[1] = molecular target: T1, Human neutrophil elastase (Homo sapiens, UniProt P08246); experiment: Linker-Payload enzymatic cleavage with human neutrophil elastase; details: 0.67 μM enzyme, 67 μM Linker-Payload, pH 7.4, 37° C., 24 hours
T1 sequence (P08246 30-267): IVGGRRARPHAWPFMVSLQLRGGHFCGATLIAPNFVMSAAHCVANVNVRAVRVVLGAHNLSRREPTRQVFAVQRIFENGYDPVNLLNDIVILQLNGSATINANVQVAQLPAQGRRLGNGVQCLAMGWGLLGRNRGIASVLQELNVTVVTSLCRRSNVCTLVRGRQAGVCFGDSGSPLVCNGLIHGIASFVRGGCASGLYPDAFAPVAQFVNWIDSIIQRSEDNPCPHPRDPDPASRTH
Description: (§1) 0.67 μM Human neutrophil elastase was added to 67 μM Linker-Payload (1:100) in Tris Buffered Saline, pH 7.4. The mixture was incubated at 37° C. for a duration of 24 hours with intermediate timepoints collected and diluted 1:1 with buffer containing acetonitrile, water and formic acid. The sample was measured by reverse-phase HPLC with data quantified against a standard curve.

β-glucuronidase = molecular target: T2, β-glucuronidase (Homo sapiens, UniProt P08236); experiment: Linker-Payload enzymatic cleavage with β-glucuronidase; details: 4 nM enzyme, 40 μM Linker-Payload, pH 5.0, 37° C., 24 hours; for cleavage in the presence of β-glucuronidase: FIG. 1A
T2 sequence (P08236 23-651): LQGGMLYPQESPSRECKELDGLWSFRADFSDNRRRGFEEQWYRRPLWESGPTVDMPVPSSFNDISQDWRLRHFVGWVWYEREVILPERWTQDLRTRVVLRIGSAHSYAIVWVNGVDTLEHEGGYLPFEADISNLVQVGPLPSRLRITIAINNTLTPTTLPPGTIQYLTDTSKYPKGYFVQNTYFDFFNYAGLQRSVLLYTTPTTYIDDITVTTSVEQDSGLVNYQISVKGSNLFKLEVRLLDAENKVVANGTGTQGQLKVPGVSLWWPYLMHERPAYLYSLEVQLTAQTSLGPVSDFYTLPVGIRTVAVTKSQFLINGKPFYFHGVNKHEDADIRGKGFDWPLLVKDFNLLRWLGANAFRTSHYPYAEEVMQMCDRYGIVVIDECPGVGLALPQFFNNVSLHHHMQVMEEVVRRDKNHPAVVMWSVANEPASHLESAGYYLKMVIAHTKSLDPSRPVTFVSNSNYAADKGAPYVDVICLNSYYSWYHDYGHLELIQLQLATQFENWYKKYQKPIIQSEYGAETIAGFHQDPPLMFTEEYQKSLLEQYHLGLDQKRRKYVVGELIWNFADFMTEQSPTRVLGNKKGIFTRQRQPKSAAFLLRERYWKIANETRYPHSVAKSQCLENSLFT
Description: as §1, with “4 nM β-glucuronidase” for “0.67 μM Human neutrophil elastase”, “40” for “67”, “(1:10,000)” for “(1:100)”, “50 mM sodium acetate,” for “Tris Buffered Saline,”, “5.0.” for “7.4.”

Cathepsin B = Cathepsin B (Homo sapiens, UniProt P07858); experiment: Linker-Payload enzymatic cleavage with cathepsin B; details: FIG. 1B; 0.14 μM enzyme, 70 μM Linker-Payload, pH 5.0, 37° C., 24 hours
Description: as §1, with “0.14” for “0.67”, “Cathepsin B” for “Human neutrophil elastase”, “70” for “67”, “(1:500)” for “(1:100)”, “50 mM sodium acetate, 1 mM DTT,” for “Tris Buffered Saline,”, “5.0.” for “7.4.”

CC[C@H](C)[C@@H]([C@@H](CC(=O)N1CCC[C@H]1[C@H](OC)[C@@H](C)C(=O)N[C@H](C)[C@@H](O)c1ccccc1)OC)N(C)C(=O)[C@@H](NC(=O)[C@H](C(C)C)N(C)C(=O)OCc1ccc(NC(=O)[C@H](CCCNC(N)=O)NC(=O)[C@@H](NC(=O)CCCCCN2C(=O)C=CC2=O)C(C)C)cc1)C(C)C [LP1, maleimidocaproyl-valine-citrulline-p-aminobenzoyloxycarbonyl-MMAE, reference compound] ({Hexanoyl(6-maleimido)}-V[Cit][PABC][NMeV]V[Dil][Dolaproine]-X2)
cleavage in the presence of human neutrophil elastase ([1]; FIG. 1C): underwent more rapid cleavage

CC[C@H](C)[C@@H]([C@@H](CC(=O)N1CCC[C@H]1[C@H](OC)[C@@H](C)C(=O)N[C@H](C)[C@@H](O)c1ccccc1)OC)N(C)C(=O)[C@@H](NC(=O)[C@H](C(C)C)N(C)C(=O)OCc1ccc(O[C@@H]2O[C@H](C(=O)O)[C@@H](O)[C@H](O)[C@H]2O)c(CNC(=O)CCNC(=O)COC2(CNC(=O)CCN3C(=O)C=CC3=O)CN(C(=O)CCOCCOCCOCCOCCOCCOCCOCCOCCOCCOCCOCCOC)C2)c1)C(C)C [LP2]
cleavage in the presence of human neutrophil elastase ([1]; FIG. 1C): did not undergo rapid cleavage | cleavage in the presence of human neutrophil elastase ([1]; FIG. 1D): did not undergo rapid cleavage | cleavage in the presence of β-glucuronidase (β-glucuronidase): underwent significant cleavage | cleavage in the presence of β-glucuronidase relative to references (β-glucuronidase; FIG. 1E): underwent slower cleavage than both LP7 (Reference) and LP8 (Reference) | cleavage in the presence of cathepsin B (Cathepsin B): neither LP2 nor LP3 underwent rapid cleavage

CC[C@H](C)[C@@H]([C@@H](CC(=O)N1CCC[C@H]1[C@H](OC)[C@@H](C)C(=O)N[C@H](C)[C@@H](O)c1ccccc1)OC)N(C)C(=O)[C@@H](NC(=O)[C@H](C(C)C)N(C)C(=O)OCc1ccc(O[C@@H]2O[C@H](C(=O)O)[C@@H](O)[C@H](O)[C@H]2O)c(CNC(=O)COC2(CNC(=O)CCN3C(=O)C=CC3=O)CN(C(=O)CCOCCOCCOCCOCCOCCOCCOCCOCCOCCOCCOCCOC)C2)c1)C(C)C [LP3]
cleavage in the presence of human neutrophil elastase ([1]; FIG. 1C): did not undergo rapid cleavage | cleavage in the presence of β-glucuronidase (β-glucuronidase): underwent significant cleavage | cleavage in the presence of cathepsin B (Cathepsin B): neither LP2 nor LP3 underwent rapid cleavage

CC[C@H](C)[C@@H]([C@@H](CC(=O)N1CCC[C@H]1[C@H](OC)[C@@H](C)C(=O)N[C@H](C)[C@@H](O)c1ccccc1)OC)N(C)C(=O)[C@@H](NC(=O)[C@H](C(C)C)N(C)C(=O)OCc1ccc(O[C@@H]2O[C@H](C(=O)O)[C@@H](O)[C@H](O)[C@H]2O)c(CNC(=O)CCNC(=O)[C@H](CCCCNC(=O)CCOCCOCCOCCOCCOCCOCCOCCOCCOCCOCCOCCOC)NC(=O)CCN2C(=O)C=CC2=O)c1)C(C)C [LP7, reference compound]
cleavage in the presence of human neutrophil elastase ([1]; FIG. 1D): did not undergo rapid cleavage

CC[C@H](C)[C@@H]([C@@H](CC(=O)N1CCC[C@H]1[C@H](OC)[C@@H](C)C(=O)N[C@H](C)[C@@H](O)c1ccccc1)OC)N(C)C(=O)[C@@H](NC(=O)[C@H](C(C)C)N(C)C(=O)OCc1ccc(O[C@@H]2O[C@H](C(=O)O)[C@@H](O)[C@H](O)[C@H]2O)c(NC(=O)CCNC(=O)[C@H](CCCCNC(=O)CCOCCOCCOCCOCCOCCOCCOCCOCCOCCOCCOCCOC)NC(=O)CCN2C(=O)C=CC2=O)c1)C(C)C [LP8, reference compound] ({Propanoyl(3-maleimido)}-K(CH3O(CH2CH2O)11CH2CH2CO)[βAla][X1][NMeV]V[Dil][Dolaproine]-X2)
cleavage in the presence of human neutrophil elastase ([1]; FIG. 1D): did not undergo rapid cleavage
